Test results reported in US20240208969A1, “SUBSTITUTED FUSED BICYCLIC COMPOUNDS AS PARP INHIBITORS AND THE USE THEREOF” (IMPACT THERAPEUTICS (SHANGHAI), INC., priority 2021, published 2024).

Assays:
MDA-MB-436 cells = experiment: Inhibition of proliferation of human breast cancer MDA-MB-436 cell line (CCK-8, 7 days); type: cell-based; conditions: Homo sapiens, 168 h, proliferation of MDA-MB-436, 7 days
Protocol: The cells were cultured in complete medium (DMEM medium +10% FBS+Insulin+glutathione). When the confluence reached about 80%, cells were digested and gently dispensed from the bottom of the dish with a 1 mL pipette. Cell suspension was collected and centrifuged at 500 rpm for 3 min. The supernatant was discarded, and the cell pellet were re-suspended in complete medium. The cells were seeded into a culture dish at an appropriate proportion, and then cultured in a 5% CO2 incubator at 37° C. The assay was carried out when the cells were in optimum condition and the confluence was reached 80%. Cells were harvested in the logarithmic growth phase by using 1 mL pipette gently and then centrifugated at 500 rpm for 3 min. The cells were resuspended by using refresh medium after removing the supernatant and then the cells were counted. The cells were seeded at 3000/well in a 96 well plate and incubated at 37° C. 5% CO2 incubator overnight. In the second day, cells were treated with compound at 8 serially diluted dose with 1000×final concentration in 100% DMSO. The compound was prepared as below: 1000×dilution tested compound solution to 40×test compound solution by adding 5μL, 1000×compound solution to 120 μL Medium (25-fold dilution). The solution was mixed by oscillation. DMSO was used as the control.
The medium was removed from the wells in the plate after the plate was taken out from incubator. Then, fresh medium of 195 μL/per well was added to the 96 well plate. 5μL/per well of 40×test compound solution was added into the 96 well plate. Finally, the plate was incubated for 7 days in a 37° C. 5% CO2 incubator. The medium containing compound was changed once on the fourth day. After 7 days, 20 μL of CCK-8 was added to each well and shake gently, then was cultured for 4 hours. The plate was shaken for 5 min after incubation, the absorbance values of 450 nm. and 650nm wavelengths were recorded respectively (OD=absorbance value of 450 nm−absorbance value of 650 nm) by using the multifunction readout instrument.
Data were analyzed by software GraphPad Prism 6.0. The inhibitory activity of compounds on cell proliferation was plotted using cell survival rate against the compound concentration as coordinates. Cell survival rate %=(ODcompound−ODbackground)/(ODDMSO−ODbackground)×100. The IC50 value was fitted by the s-shaped dose response curve equation: Y=100/(1+10^(log C−log IC50)), and C was the compound concentration.
Table 2 summarizes the inhibitory effect data (IC50) of the compounds on the proliferation of human breast cancer cells MDA-MB-436, wherein ++++ indicates 1<IC50≤10 nM; +++ indicates 10 nM<IC50≤100 nM; ++ indicates 100 nM<IC50≤1 μM; + indicates IC50>1 μM.

PARP2 = PARP2 (Homo sapiens, UniProt Q9UGN5); experiment: PARP2 chemiluminescent assay; type: biochemical; conditions: recombinant PARP2 enzyme activity, chemiluminescence
Protocol: (§1) Mix the solution of recombinant poly ADP ribotransferase 1 and 2 (PARP1 and PARP2) (40 ng enzyme/well) and the compounds to be tested, respectively. And then added to a 96-well plate coated with […] mixture, incubated at room temperature for 1 h. Then add 50 μL 0.3 ng/mL Streptavidin-HRP to each well. The plates were incubated for 30 minutes at room temperature. Finally, the plates were treated with streptavidin-HRP followed by addition of the ELISA ECL substrate to produce chemiluminescence that can then be measured using a chemiluminescence reader. The inhibition rate of the compound to PARP1/2 enzyme activity was calculated according to the following formula. [formula] IC50 value is obtained by fitting the s-shaped dose response curve equation by using XL Fit software. The curve equation is Y=100/(1+10^(log C−log IC50)), C is the compound concentration. Table 1 summarizes the inhibitory effects of compounds on PARP1 and PARP2 enzyme activity (IC50), wherein +++++ indicates IC50≤1 nM; ++++ indicates 1<IC50≤10 nM; +++ indicates 10 nM<IC50≤100 nM: ++ indicates 100 nM<IC50≤1 μM; + indicates IC50>1 μM.

PARP1 = PARP1 (Homo sapiens, UniProt P09874); experiment: PARP1 chemiluminescent assay; type: biochemical; conditions: recombinant PARP1 enzyme activity, chemiluminescence
Protocol: as §1

Sequence of PARP1 (P09874 whole entry): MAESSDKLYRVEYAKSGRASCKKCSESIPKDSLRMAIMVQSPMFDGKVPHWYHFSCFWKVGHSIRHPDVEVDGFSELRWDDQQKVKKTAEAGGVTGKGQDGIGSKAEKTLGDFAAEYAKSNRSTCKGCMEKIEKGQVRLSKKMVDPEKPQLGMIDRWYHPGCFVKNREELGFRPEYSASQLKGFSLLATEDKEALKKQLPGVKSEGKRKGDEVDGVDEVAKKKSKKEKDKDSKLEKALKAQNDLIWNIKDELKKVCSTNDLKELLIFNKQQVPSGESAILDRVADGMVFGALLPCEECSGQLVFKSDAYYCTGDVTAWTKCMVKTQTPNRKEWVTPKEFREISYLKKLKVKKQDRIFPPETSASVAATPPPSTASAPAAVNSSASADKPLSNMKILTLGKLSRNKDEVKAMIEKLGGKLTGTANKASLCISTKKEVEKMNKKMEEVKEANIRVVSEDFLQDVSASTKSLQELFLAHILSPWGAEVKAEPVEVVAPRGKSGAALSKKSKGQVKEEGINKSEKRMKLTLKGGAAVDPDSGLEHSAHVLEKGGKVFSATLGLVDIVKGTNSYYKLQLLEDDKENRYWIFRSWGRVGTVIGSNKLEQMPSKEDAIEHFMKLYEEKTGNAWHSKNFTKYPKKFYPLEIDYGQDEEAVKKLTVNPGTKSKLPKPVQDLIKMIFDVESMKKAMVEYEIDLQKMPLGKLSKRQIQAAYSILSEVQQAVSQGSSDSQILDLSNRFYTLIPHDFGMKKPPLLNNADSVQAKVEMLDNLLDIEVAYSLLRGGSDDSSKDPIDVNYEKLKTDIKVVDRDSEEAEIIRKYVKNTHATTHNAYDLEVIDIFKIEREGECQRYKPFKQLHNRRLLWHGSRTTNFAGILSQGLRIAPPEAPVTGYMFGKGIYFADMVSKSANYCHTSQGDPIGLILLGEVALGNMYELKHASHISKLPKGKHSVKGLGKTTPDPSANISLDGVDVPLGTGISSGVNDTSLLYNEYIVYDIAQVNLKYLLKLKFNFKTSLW
Sequence of PARP2 (Q9UGN5 whole entry, species assumed): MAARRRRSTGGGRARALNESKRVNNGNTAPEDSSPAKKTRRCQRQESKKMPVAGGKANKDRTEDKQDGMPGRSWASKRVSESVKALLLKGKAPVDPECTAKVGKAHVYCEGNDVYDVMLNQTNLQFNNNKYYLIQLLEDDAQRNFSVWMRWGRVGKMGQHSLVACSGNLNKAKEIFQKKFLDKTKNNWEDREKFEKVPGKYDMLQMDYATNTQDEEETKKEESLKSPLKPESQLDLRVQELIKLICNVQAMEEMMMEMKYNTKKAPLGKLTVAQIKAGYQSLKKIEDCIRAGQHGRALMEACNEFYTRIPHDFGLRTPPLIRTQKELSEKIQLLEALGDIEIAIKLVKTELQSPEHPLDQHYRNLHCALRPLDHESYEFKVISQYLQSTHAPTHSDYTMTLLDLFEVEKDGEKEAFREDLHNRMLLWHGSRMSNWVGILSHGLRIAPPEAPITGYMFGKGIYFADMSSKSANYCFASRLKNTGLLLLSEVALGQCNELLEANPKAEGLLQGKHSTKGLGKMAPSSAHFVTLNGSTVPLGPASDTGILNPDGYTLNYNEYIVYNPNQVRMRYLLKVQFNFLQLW

| IC50 (MDA-MB-436 cells) | IC50 (PARP2) | IC50 (PARP1) | Compound |
| --- | --- | --- | --- |
| > 1000 nM | 100 to 1000 nM | ≤ 1 nM | CCn1c(=O)[nH]c2cc(CN3CCN(c4ccc(C(=O)NC)nc4)CC3)cnc2c1=O [Example 1, 5-(4-((3-ethyl-2,4-dioxo-1,2,3,4-tetrahydropyrido[3,2-d]pyrimidin-7-yl)methyl)piperazin-1-yl)-N-methylpicolinamide] |
| > 1000 nM | > 1000 nM | 10 to 100 nM | CNC(=O)c1ccc(N2CCN(Cc3cnc4c(=O)n(C(C)C)c(=O)[nH]c4c3)CC2)cn1 [Example 3, 5-(4-((3-isopropyl-2,4-dioxo-1,2,3,4-tetrahydropyrido[3,2-d]pyrimidin-7-yl)methyl)piperazin-1-yl)-N-methylpicolinamide] |
| 10 to 100 nM | > 1000 nM | 1 to 10 nM | CCn1c(=O)[nH]c2cc(CN3CCN(c4ccc(C(=O)NC)nc4C)CC3)cnc2c1=O [Example 4, 5-(4-((3-ethyl-2,4-dioxo-1,2,3,4-tetrahydropyrido[3,2-d]pyrimidin-7-yl)methyl)piperazin-1-yl)-N,6-dimethylpicolinamide] |
| > 1000 nM | > 1000 nM | ≤ 1 nM | CCCn1c(=O)[nH]c2cc(CN3CCN(c4ccc(C(=O)NC)nc4)CC3)cnc2c1=O [Example 7] |
| > 1000 nM | > 1000 nM | 1 to 10 nM | CCn1c(=O)[nH]c2cc(CN3CCN(c4ccc(C(=O)NC)nc4Cl)CC3)cnc2c1=O [Example 10, 5-(4-((3-ethyl-2,4-dioxo-1,2,3,4-tetrahydropyrido[3,2-d]pyrimidin-7-yl)methyl)piperazin-1-yl)-6-chloro-N-methylpicolinamide] |
| 10 to 100 nM | 100 to 1000 nM | 1 to 10 nM | CCn1c(=O)[nH]c2cc(CN3CCN(c4ccc(C(=O)NC)nc4)CC3)ccc2c1=O [Example 12, 5-(4-((3-ethyl-2,4-dioxo-1,2,3,4-tetrahydroquinazolin-7-yl)methyl)piperazin-1-yl)-N-methylpicolinamide] |
| 1 to 10 nM | 100 to 1000 nM | 1 to 10 nM | CCn1c(=O)[nH]c2cc(CN3CCN(c4ccc(C(=O)NC)nc4F)CC3)ccc2c1=O [Example 13, 5-(4-((3-ethyl-2,4-dioxo-1,2,3,4-tetrahydroquinazolin-7-yl)methyl)piperazin-1-yl)-6-fluoro-N-methylpicolinamide] |
| 10 to 100 nM | 100 to 1000 nM | 1 to 10 nM | CCn1c(=O)[nH]c2cc(CN3CCN(c4ccc(C(=O)NC)nc4F)CC3)c(F)cc2c1=O [Example 14, 5-(4-((3-ethyl-6-fluoro-2,4-dioxo-1,2,3,4-tetrahydroquinazolin-7-yl)methyl)piperazin-1-yl)-6-fluoro-N-methylpicolinamide] |
| 100 to 1000 nM | > 1000 nM | 1 to 10 nM | CCN1Cc2ccc(CN3CCN(c4ccc(C(=O)NC)nc4)CC3)cc2NC1=O [Example 15, 5-(4-((3-ethyl-2-oxo-1,2,3,4-tetrahydroquinazolin-7-yl)methyl)piperazin-1-yl)-N-methylpicolinamide] |
| > 1000 nM | > 1000 nM | > 1000 nM | CCn1c(=O)[nH]c2cc(CN3CCN(c4ccc(C(=O)NC)nc4)CC3)ccc21 [Example 16, 5-(4-((1-ethyl-2-oxo-2,3-dihydro-1H-benzo[d]imidazol-5-yl)methyl)piperazin-1-yl)-N-methylpicolinamide] |
| 10 to 100 nM | > 1000 nM | 1 to 10 nM | CNC(=O)c1ccc(N2CCN(Cc3ccc4c(=O)n(C)c(=O)[nH]c4c3)CC2)c(F)n1 [Example 17, 5-(4-((3-methyl-2,4-dioxo-1,2,3,4-tetrahydroquinazolin-7-yl)methyl)piperazin-1-yl)-6-fluoro-N-methylpicolinamide] |
| 10 to 100 nM | > 1000 nM | 1 to 10 nM | CCCn1c(=O)[nH]c2cc(CN3CCN(c4ccc(C(=O)NC)nc4F)CC3)ccc2c1=O [Example 19, 5-(4-((2,4-dioxo-3-propyl-1,2,3,4-tetrahydroquinazolin-7-yl)methyl)piperazin-1-yl)-6-fluoro-N-methylpicolinamide] |
| 1 to 10 nM | 10 to 100 nM | ≤ 1 nM | CCn1c(=O)[nH]c2cc(CN3CCN(c4ccc(C(=O)NC)nc4Cl)CC3)ccc2c1=O [Example 21, 5-(4-((3-ethyl-2,4-dioxo-1,2,3,4-tetrahydroquinazolin-7-yl)methyl)piperazin-1-yl)-6-chloro-N-methylpicolinamide] |
| 1 to 10 nM | > 1000 nM | 1 to 10 nM | CCn1c(=O)[nH]c2cc(CN3CCN(c4ccc(C(=O)NC)nc4C)CC3)ccc2c1=O [Example 22, 5-(4-((3-ethyl-2,4-dioxo-1,2,3,4-tetrahydroquinazolin-7-yl)methyl)piperazin-1-yl)-N,6-dimethylpicolinamide] |
| 10 to 100 nM | > 1000 nM | 10 to 100 nM | CCn1c(=O)[nH]c2c(F)c(CN3CCN(c4ccc(C(=O)NC)nc4F)CC3)ccc2c1=O [Example 24, 5-(4-((3-ethyl-8-fluoro-2,4-dioxo-1,2,3,4-tetrahydroquinazolin-7-yl)methyl)piperazin-1-yl)-6-fluoro-N-methylpicolinamide] |
| 1 to 10 nM | 100 to 1000 nM | 1 to 10 nM | CCn1c(=O)[nH]c2cc(CN3CCN(c4ccc(C(=O)NC)nc4F)CC3)cc(F)c2c1=O [Example 25, 5-(4-((3-ethyl-5-fluoro-2,4-dioxo-1,2,3,4-tetrahydroquinazolin-7-yl)methyl)piperazin-1-yl)-6-fluoro-N-methylpicolinamide] |
| 100 to 1000 nM | > 1000 nM | 1 to 10 nM | CNC(=O)c1ccc(N2CCN(Cc3ccc4c(=O)n(C(C)C)c(=O)[nH]c4c3)CC2)c(F)n1 [Example 26, 5-(4-((3-isopropyl-2,4-dioxo-1,2,3,4-tetrahydroquinazolin-7-yl)methyl)piperazin-1-yl)-6-fluoro-N-methylpicolinamide] |
| > 1000 nM | 100 to 1000 nM | 1 to 10 nM | CCn1c(=O)[nH]c2cc(CN3CCN(c4cnc(C(=O)NC)nc4)CC3)ccc2c1=O [Example 27] |
| 10 to 100 nM |  | 1 to 10 nM | CCNC(=O)c1ccc(N2CCN(Cc3cc(F)c4c(c3)NC(=O)N(CC)C4)CC2)c(Cl)n1 [Example 122, 6-chloro-N-ethyl-5-(4-((3-ethyl-5-fluoro-2-oxo-1,2,3,4-tetrahydroquinazolin-7-yl)methyl)piperazin-1-yl)picolinamide] |
| 10 to 100 nM |  |  | CNC(=O)c1ccc(N2CCN(Cc3ccc4c(=O)n(C)c(=O)[nH]c4c3F)CC2)c(F)n1 [Example 138, 6-fluoro-5-(4-((8-fluoro-3-methyl-2,4-dioxo-1,2,3,4-tetrahydroquinazolin-7-yl)methyl)piperazin-1-yl)-N-methylpicolinamide] |
| 1 to 10 nM |  |  | CCn1c(=O)[nH]c2cc(CN3CCN(c4ccc(C(=O)NC5CC5)nc4F)CC3)cc(F)c2c1=O [Example 141, N-cyclopropyl-5-(4-((3-ethyl-5-fluoro-2,4-dioxo-1,2,3,4-tetrahydroquinazolin-7-yl)methyl)piperazin-1-yl)-6-fluoropicolinamide] |
| 10 to 100 nM |  |  | CCN1Cc2ncc(CN3CCN(c4ccc(C(=O)NC)nc4)CC3)cc2NC1=O [Example 144, 5-(4-((3-ethyl-2-oxo-1,2,3,4-tetrahydropyrido[3,2-d]pyrimidin-7-yl)methyl)piperazin-1-yl)-N-methylpicolinamide] |
